Measurements: patent US20020013342A1, “Treatment of central nervous system disorders with selective estrogen receptor modulators” (priority 1997, published 2002)
Structures can show the parent of a compound that is named as a salt.

System: not given
Test: not given
Conditions: not given

Structure (SMILES)	melting point
COc1ccc(-c2sc3cc(OC)ccc3c2Oc2ccc(OCCN3CCCCC3)cc2)cc1 (as salt: hydrochloride) [Example 2, [6-methoxy-3-[4-[2-(1-piperidinyl)ethoxy]-phenoxy]-2-(4-methoxyphenyl)]benzo[b]thiophene hydrochloride salt]	216 to 220 °C
COc1ccc(-c2sc3cc(OC)ccc3c2Oc2ccc(OCCN3CCCCCC3)cc2)cc1 (as salt: hydrochloride) [Example 4, [6-Methoxy-3-[4-[2-(1-hexamethyleneimino)ethoxy]phenoxy]-2-(4-methoxyphenyl)]benzo[b]thiophene Hydrochloride]	189 to 192 °C
CCN(CC)CCOc1ccc(Oc2c(-c3ccc(OC)cc3)sc3cc(OC)ccc23)cc1 (as salt: hydrochloride) [Example 5, [6-Methoxy-3-[4-[2-(1-N,N-diethylamino)ethoxy]phenoxy]-2-(4-methoxyphenyl)]benzo[b]thiophene Hydrochloride]	196 to 198 °C
COc1ccc(-c2sc3cc(OC)ccc3c2Oc2ccc(OCCN3CCOCC3)cc2)cc1 (as salt: hydrochloride) [Example 6, [6-Methoxy-3-[4-[2-(morpholino)ethoxy]-phenoxy]-2-(4-methoxyphenyl)]benzo[b]thiophene Hydrochloride]	208 to 211 °C
Oc1ccc(-c2sc3cc(O)ccc3c2Oc2ccc(OCCN3CCOCC3)cc2)cc1 (as salt: hydrochloride) [Example 13, [6-Hydroxy-3-[4-[2-(morpholino)ethoxy]-phenoxy]-2-(4-hydroxyphenyl)]benzo[b]thiophene Hydrochloride]	157 to 162 °C
COc1ccc2c(Oc3ccc(OCCN4CCCCC4)cc3)c(-c3ccc(O)cc3)sc2c1 (as salt: hydrochloride) [Example 17, [6-methoxy-3-[4-[2-(1-piperidinyl)ethoxy]-phenoxy]-2-(4-hydroxyphenyl)]benzo[b]thiophene Hydrochloride]	215 to 217 °C
COc1ccc(-c2sc3cc(OC)ccc3c2Oc2ccc(OCCN3CCCCC3)cc2)cc1 (as salt: oxalate) [Example 1, [6-methoxy-3-[4-[2-(1-piperidinyl)ethoxy]-phenoxy]-2-(4-methoxyphenyl)]benzo[b]thiophene Oxalate Salt]	197 to 200 °C (dec.)
COc1ccc(-c2sc3cc(OC)ccc3c2Oc2ccc(OCCN3CCCC3)cc2)cc1 [Example 3, [6-Methoxy-3-[4-[2-(1-pyrolodinyl)ethoxy]-phenoxy]-2-(4-methoxyphenyl)]benzo[b]thiophene]	95 to 98 °C
Oc1ccc(-c2sc3cc(O)ccc3c2Oc2ccc(OCCN3CCCC3)cc2)cc1 [Example 10, [6-Hydroxy-3-[4-[2-(1-pyrolidinyl)ethoxy]-phenoxy]-2-(4-hydroxyphenyl)]benzo[b]thiophene]	99 to 113 °C
Oc1ccc(-c2sc3cc(O)ccc3c2Oc2ccc(OCCN3CCCCCC3)cc2)cc1 [Example 11, [6-Hydroxy-3-[4-[2-(1-hexamethyleneimino)ethoxy]phenoxy]-2-(4-hydroxyphenyl)]benzo[b]thiophene]	125 to 130 °C
CCN(CC)CCOc1ccc(Oc2c(-c3ccc(O)cc3)sc3cc(O)ccc23)cc1 [Example 12, [6-Hydroxy-3-[4-[2-(1-N,N-diethylamino)ethoxy]phenoxy]-2-(4-hydroxyphenyl)]benzo[b]thiophene]	137 to 141 °C
COc1ccc2c(Oc3ccc(OCCN4CCCCC4)cc3)c(-c3ccc(O)cc3)sc2c1 [Example 16, [6-methoxy-3-[4-[2-(1-piperidinyl)ethoxy]phenoxy]-2-(4-hydroxyphenyl)]benzo[b]thiophene]	147 to 150 °C

System: gene expression in the hippocampus
Test: Differential mRNA display in hippocampi of ovariectomized rats after five weeks of daily treatment
Type: in vivo, female Sprague-Dawley rats
Conditions: 1 mg/kg daily subcutaneous, comparator estradiol benzoate 0.03 mg/kg
Procedure: A commonly employed model of estrogen depletion is the ovariectomized adult rat. An experiment was conducted in ovariectomized rats using differential mRNA display to determine the similarities and/or differences between a representative compound of the present invention, 6-hydroxy-2-(4-methoxyphenyl)-3-[4-(2-piperidinoethoxy)phenoxy]-benzo[b]thiophene, and estrogen at affecting gene expression in various brain regions. Specifically, female Sprague-Dawley rats, 6 weeks of age, were ovariectomized by the vendor. Following one week of acclimation to the laboratory facility, daily subcutaneous injections of estradiol benzoate (0.03 mg/kg) or 6-hydroxy-2-(4-methoxyphenyl)-3-[4-(2-piperidinoethoxy)phenoxy]-benzo[b]thiophene (1 mg/kg), or vehicle (control) were initiated.
After five weeks of daily treatment, animals were sacrificed and their brains removed and hippocampi collected by microdissection. The hippocampi were fast frozen in liquid nitrogen and stored at −70_C. Total RNA was prepared from pooled tissue from the appropriate treatment and control groups and reverse transcribed using a 3′ oligonucleotide primer which selected for specific mRNA (poly-A+) populations. Polymerase chain reactions (PCR) were carried out in a cocktail consisting of: random 5′ oligonucleotides (10 base-pairs in length; total of 150), reaction buffer, Taq polymerase, and a ^32PdTCP. […]

Structure (SMILES)	mRNA display pattern in rat hippocampus compared with that observed for estrogen
COc1ccc(-c2sc3cc(O)ccc3c2Oc2ccc(OCCN3CCCCC3)cc2)cc1 [Example 14, [6-Hydroxy-3-[4-[2-(1-piperidinyl)ethoxy]-phenoxy]-2-(4-methoxyphenyl)]benzo[b]thiophene]	parallel pattern of gene activation or inactivation

System: not listed separately
Test: Distribution of radioactivity among tissues after a single oral dose of 14C-labeled compound in the female F344 rat
Type: in vivo, Female Fischer 344 rats
Conditions: all tissues with the exception of the liver
Procedure: Female Fischer 344 rats (approximately twelve weeks old) were given a single oral gavage dose of 5 mg/kg (30 mCi/kg) of ^14C-labeled 6-hydroxy-2-(4-methoxyphenyl)-3-[4-(piperidinoethoxy)phenoxy]benzo[b]thiophene hydrochloride in 50% PEG 300/50% water. Blood and tissues were collected from three rats at each time point: just prior to dosing and at 2, 4, 8, and 24 hours after dosing. At each time point, the animals were sacrificed, blood samples were collected and the heparinized blood was centrifuged and the plasma obtained. Following collection of the bloood sample in each case, the animals were perfused with 0.9% saline solution and the brain, pituitary, femurs, ovaries, uterus and liver were surgically removed and placed in separate containers. […]
The radioactivity of each sample was determined by liquid scintillation spectrometry. Plasma was counted directly, while the other tissues were either homogenized, digested, or oxidized prior to liquid scintillation counting. […]
Samples were oxidized on a Packard Model307 Oxidizer and the resulting ^14CO2 trapped for liquid scintillation counting. The radioactivity in each tissue sample was converted to nanogram equivalents per gram of tissue (specific activity=16.3 dpm/ng). The 0-24 hour area under the curve (AUC0-24 hr) was calculated for each sample.

Structure (SMILES)	time after dosing at which peak levels of radioactive material were reached [h]
COc1ccc(-c2sc3cc(O)ccc3c2Oc2ccc(OCCN3CCCCC3)cc2)cc1 [Example 15, [6-Hydroxy-3-[4-[2-(1-piperidinyl)ethoxy]-phenoxy]-2-(4-methoxyphenyl)]benzo[b]thiophene Hydrochloride Salt]	8

Same assay, conditions: liver

Structure (SMILES)	time after dosing at which peak levels of radioactive material were reached [h]
COc1ccc(-c2sc3cc(O)ccc3c2Oc2ccc(OCCN3CCCCC3)cc2)cc1 [Example 15, [6-Hydroxy-3-[4-[2-(1-piperidinyl)ethoxy]-phenoxy]-2-(4-methoxyphenyl)]benzo[b]thiophene Hydrochloride Salt]	4

System: not listed separately
Test: HPLC/UV analysis of liver and cerebral cortex homogenates for parent drug, primary metabolite and glucuronide conjugates
Type: in vivo, Female Fischer 344 rats
Conditions: cerebral cortex, eight hours after dosing
Procedure: A liver and cerebral cortex homogenate were analyzed by HPLC and UV detection at 315 nm to determine if the radioactivity in these tissues was actually due to the drug initially dosed, to the primary metabolite, 6-hydroxy-2-(4-hydroxyphenyl)-3-[4-(piperidinoethoxy)phenoxy]-benzo[b]thiophene, or there glucuronide conjugates. The cerebral cortex sample was obtained eight hours after dosing and the liver samples were collected at four and eight hours after dosing. The proteins in the homogenate were precipitated with acetonitrile and the supernate was evaporated to dryness. The residue was reconstituted in mobile phase and injected onto a SynChropak SCD-100 column with the initial mobile phase composed of […]. (v/v/v). The retention times of the peaks from the homogenate were compared with those obtained from authentic samples of 6-hydroxy-2-(4-methoxyphenyl)-3-[4-(piperidinoethoxy)phenoxy]benzo[b]thiophene and its metabolite, 6-hydroxy-2-(4-hydroxyphenyl)-3-[4-(piperidinoethoxy)phenoxy]benzo [b]-thiophene.

Structure (SMILES)	peaks corresponding to the glucuronide conjugates in the HPLC chromatogram of the cerebral cortex homogenate
Oc1ccc(-c2sc3cc(O)ccc3c2Oc2ccc(OCCN3CCCCC3)cc2)cc1 [Example 7, [6-Hydroxy-3-[4-[2-(1-piperidinyl)ethoxy]-phenoxy]-2-(4-hydroxyphenyl)]benzo[b]thiophene]	not observed
COc1ccc(-c2sc3cc(O)ccc3c2Oc2ccc(OCCN3CCCCC3)cc2)cc1 [Example 15, [6-Hydroxy-3-[4-[2-(1-piperidinyl)ethoxy]-phenoxy]-2-(4-methoxyphenyl)]benzo[b]thiophene Hydrochloride Salt]	not observed

Same assay, conditions: liver samples collected at four and eight hours after dosing

Structure (SMILES)	peaks in the HPLC chromatogram of the liver homogenates
COc1ccc(-c2sc3cc(O)ccc3c2Oc2ccc(OCCN3CCCCC3)cc2)cc1 [Example 15, [6-Hydroxy-3-[4-[2-(1-piperidinyl)ethoxy]-phenoxy]-2-(4-methoxyphenyl)]benzo[b]thiophene Hydrochloride Salt]	peaks whose retention times corresponded to the parent compound and its glucuronide conjugate
